Where two headings read alike, the source gives them in different places.
What was measured:
[1] = system: B16 melanoma; test: Scintillation imaging, C57 BL6 mice bearing B16; format: in vivo, mouse; details: 3 to 17 h after injection
Excerpt: The mice bearing grafted tumors are anesthetized by the i.p. injection of sodium pentobarbital 1/5 and immobilized under a scintillation camera (Gammatome II, CGR) equipped with a pinhole 3-360 collimator, sensitivity 3.2 10^-4.
C57 BL6 bearing B16 melanomas at different stages of development.
The scanning observations have also been carried out after the injection of B into the following mice:
C57 BL6 bearing the B16 melanoma

[2] = Tissue distribution in Swiss nu/nu SSCUP mice bearing Dau; format: in vivo, human; details: mouse, iv, 3 umol/animal
Protocol: The study of the tissue distribution of the ^125 I labelled compounds was performed in mice bearing grafted melanomas (cf. autoradiograms above). […] The animals are sacrificed at different time intervals of 1 to 24 hours after the injection. The blood is collected and the principal organs are excised. Aliquots are weighed and the radioactivity of the samples is measured in a […] 1191 counter (analytic tracer). The counting yield for iodine 125 is 60%. The results are expressed: as a percentage of the injected dose bound per g of tissue (% ID/g); in the form of the ratios [formula] This ratio reflects more precisely the selectivity of a molecule for an organ (tables 2, 4, 6, 8, 10 and 12).

[3] = LD50 determination, i.v. (Karber and Behrens); details: mouse, in vivo, iv
Excerpt: (§1) The determination of the LD50 is made in the mouse after i.v. injection of the molecules according to the methodology described by Karber and Behrens.
(§2) 6 weeks old OF 1 male mice

[4] = system: 6 weeks old OF 1 male mice; test: LD50 determination, i.v. (Karber and Behrens); details: mouse, in vivo, iv
Excerpt: as §1, §2

[5] = system: Beu melanic human melanoma; test: Autoradiograms, nu/nu SSCUP nude mice bearing Beu; format: in vivo
Protocol: The autoradiograms are carried out in mice bearing grafted melanomas:
b. nu/nu SSCUP nudes bearing heterotransplants of melanic (Beu) or amelanic (Dau) human melanomas).
The animals bearing grafted tumors receive the labelled compounds in the form of the hydrochloride in saline solution (3.7 to 5×10^5 Bq/animal) in a caudal vein. At different time intervals after the administration of the compounds (from 15 minutes to 24 hours) the mice are anesthetized with ether and plunged into liquid nitrogen.
30 μm sections, parallel to a sagittal plane, are prepared in a freezing microtome (TS 260, SLEE) according to the protocol described by Ullberg.

[6] = intestine, read-out: intestine % ID/g
[7] = kidney, read-out: kidney % ID/g
[8] = muscle, read-out: muscle % ID/g
[9] = pancreas, read-out: pancreas % ID/g
[10] = plasma, read-out: plasma % ID/g
[11] = spleen, read-out: spleen % ID/g
[12] = stomach, read-out: stomach % ID/g
[13] = submaxillary glands, read-out: submaxillary glands % ID/g

CCNCCNC(=O)c1ccc(I)cc1 [Derivative B, N-(2-ethylaminoethyl) 4-iodo benzamide]
tumoral definition [1]: very good tumoral definition | tissue uptake at 1 h ([2]; blood, read-out: blood % ID/g): 0.89 %ID/g | tissue uptake at 2 h ([2]; blood, read-out: blood % ID/g): 0.93 %ID/g | tissue uptake at 4 h ([2]; blood, read-out: blood % ID/g): 0.3 %ID/g | tissue uptake at 6 h ([2]; blood, read-out: blood % ID/g): 0.53 %ID/g | tissue uptake at 24 h ([2]; blood, read-out: blood % ID/g): 0.009 %ID/g | tissue uptake at 8 h ([2]; blood, read-out: blood % ID/g): 0.11 %ID/g | tissue uptake at 12 h ([2]; blood, read-out: blood % ID/g): 0.015 %ID/g | tissue uptake at 1 h ([2]; brain, read-out: brain % ID/g): 1.28 %ID/g | tissue uptake at 2 h ([2]; brain, read-out: brain % ID/g): 1.25 %ID/g | tissue uptake at 4 h ([2]; brain, read-out: brain % ID/g): 0.63 %ID/g | tissue uptake at 6 h ([2]; brain, read-out: brain % ID/g): 0.22 %ID/g | tissue uptake at 24 h ([2]; brain, read-out: brain % ID/g): 0.002 %ID/g | tissue uptake at 8 h ([2]; brain, read-out: brain % ID/g): 0.14 %ID/g | tissue uptake at 12 h ([2]; brain, read-out: brain % ID/g): 0.01 %ID/g | tissue uptake at 1 h ([2]; eye, read-out: eye % ID/g): 0.51 %ID/g | tissue uptake at 2 h ([2]; eye, read-out: eye % ID/g): 0.5 %ID/g | tissue uptake at 4 h ([2]; eye, read-out: eye % ID/g): 0.21 %ID/g | tissue uptake at 6 h ([2]; eye, read-out: eye % ID/g): 0.19 %ID/g | tissue uptake at 24 h ([2]; eye, read-out: eye % ID/g): 0.008 %ID/g | tissue uptake at 8 h ([2]; eye, read-out: eye % ID/g): 0.06 %ID/g | tissue uptake at 12 h ([2]; eye, read-out: eye % ID/g): 0.01 %ID/g | tissue uptake at 1 h [2, 6]: 3.1 %ID/g | tissue uptake at 2 h [2, 6]: 2.57 %ID/g | tissue uptake at 4 h [2, 6]: 1.19 %ID/g | tissue uptake at 6 h [2, 6]: 1.05 %ID/g | tissue uptake at 8 h [2, 6]: 0.36 %ID/g | tissue uptake at 12 h [2, 6]: 0.05 %ID/g | tissue uptake at 24 h [2, 6]: 0.01 %ID/g | tissue uptake at 1 h [2, 7]: 8.15 %ID/g | tissue uptake at 2 h [2, 7]: 6.17 %ID/g | tissue uptake at 4 h [2, 7]: 2.51 %ID/g | tissue uptake at 6 h [2, 7]: 1.07 %ID/g | tissue uptake at 24 h [2, 7]: 0.04 %ID/g | tissue uptake at 8 h [2, 7]: 0.42 %ID/g | tissue uptake at 12 h [2, 7]: 0.08 %ID/g | tissue uptake at 1 h ([2]; liver, read-out: liver % ID/g): 4.95 %ID/g | tissue uptake at 2 h ([2]; liver, read-out: liver % ID/g): 3.16 %ID/g | tissue uptake at 4 h ([2]; liver, read-out: liver % ID/g): 1.52 %ID/g | tissue uptake at 6 h ([2]; liver, read-out: liver % ID/g): 0.74 %ID/g | tissue uptake at 24 h ([2]; liver, read-out: liver % ID/g): 0.19 %ID/g | tissue uptake at 8 h ([2]; liver, read-out: liver % ID/g): 0.63 %ID/g | tissue uptake at 12 h ([2]; liver, read-out: liver % ID/g): 0.2 %ID/g | tissue uptake at 1 h ([2]; lungs, read-out: lungs % ID/g): 5.35 %ID/g | tissue uptake at 2 h ([2]; lungs, read-out: lungs % ID/g): 5.56 %ID/g | tissue uptake at 4 h ([2]; lungs, read-out: lungs % ID/g): 2.63 %ID/g | tissue uptake at 6 h ([2]; lungs, read-out: lungs % ID/g): 0.93 %ID/g | tissue uptake at 8 h ([2]; lungs, read-out: lungs % ID/g): 0.43 %ID/g | tissue uptake at 12 h ([2]; lungs, read-out: lungs % ID/g): 0.04 %ID/g | tissue uptake at 24 h ([2]; lungs, read-out: lungs % ID/g): 0.02 %ID/g | tissue uptake at 1 h [2, 8]: 1.04 %ID/g | tissue uptake at 2 h [2, 8]: 6.86 %ID/g | tissue uptake at 4 h [2, 8]: 0.41 %ID/g | tissue uptake at 6 h [2, 8]: 0.12 %ID/g | tissue uptake at 24 h [2, 8]: 0.002 %ID/g | tissue uptake at 8 h [2, 8]: 0.07 %ID/g | tissue uptake at 12 h [2, 8]: 0.008 %ID/g | tissue uptake at 1 h [2, 9]: 2.86 %ID/g | tissue uptake at 2 h [2, 9]: 2.13 %ID/g | tissue uptake at 4 h [2, 9]: 0.83 %ID/g | tissue uptake at 6 h [2, 9]: 0.4 %ID/g | tissue uptake at 8 h [2, 9]: 0.14 %ID/g | tissue uptake at 12 h [2, 9]: 0.08 %ID/g | tissue uptake at 24 h [2, 9]: 0.01 %ID/g | tissue uptake at 1 h [2, 10]: 0.71 %ID/g | tissue uptake at 2 h [2, 10]: 0.85 %ID/g | tissue uptake at 4 h [2, 10]: 0.28 %ID/g | tissue uptake at 6 h [2, 10]: 0.61 %ID/g | tissue uptake at 24 h [2, 10]: 0.009 %ID/g | tissue uptake at 8 h [2, 10]: 0.13 %ID/g | tissue uptake at 12 h [2, 10]: 0.02 %ID/g | tissue uptake at 1 h [2, 11]: 2.54 %ID/g | tissue uptake at 2 h [2, 11]: 2.02 %ID/g | tissue uptake at 4 h [2, 11]: 0.62 %ID/g | tissue uptake at 6 h [2, 11]: 0.33 %ID/g | tissue uptake at 8 h [2, 11]: 0.14 %ID/g | tissue uptake at 12 h [2, 11]: 0.05 %ID/g | tissue uptake at 24 h [2, 11]: 0.09 %ID/g | tissue uptake at 1 h [2, 12]: 2.38 %ID/g | tissue uptake at 2 h [2, 12]: 3.03 %ID/g | tissue uptake at 4 h [2, 12]: 1.23 %ID/g | tissue uptake at 6 h [2, 12]: 2 ± 0.253 %ID/g | tissue uptake at 8 h [2, 12]: 0.58 %ID/g | tissue uptake at 12 h [2, 12]: 0.1 %ID/g | tissue uptake at 24 h [2, 12]: 0.02 %ID/g | tissue uptake at 1 h [2, 13]: 4.28 %ID/g | tissue uptake at 2 h [2, 13]: 4.14 %ID/g | tissue uptake at 4 h [2, 13]: 1.68 %ID/g | tissue uptake at 6 h [2, 13]: 2.74 %ID/g | tissue uptake at 8 h [2, 13]: 0.39 %ID/g | tissue uptake at 12 h [2, 13]: 0.04 %ID/g | tissue uptake at 24 h [2, 13]: 0.02 %ID/g | tissue uptake at 1 h ([2]; tumor, read-out: tumor % ID/g): 1.19 %ID/g | tissue uptake at 2 h ([2]; tumor, read-out: tumor % ID/g): 1.27 %ID/g | tissue uptake at 4 h ([2]; tumor, read-out: tumor % ID/g): 0.93 %ID/g | tissue uptake at 6 h ([2]; tumor, read-out: tumor % ID/g): 0.34 %ID/g | tissue uptake at 24 h ([2]; tumor, read-out: tumor % ID/g): 0.007 %ID/g | tissue uptake at 8 h ([2]; tumor, read-out: tumor % ID/g): 0.12 %ID/g | tissue uptake at 12 h ([2]; tumor, read-out: tumor % ID/g): 0.02 %ID/g | LD50 [3]: 175 mg/kg | LD 0 [4]: 150 mg/kg | LD 100 [4]: 200 mg/kg | darkening along the circumference of the tumor ([5]; 6 h after injection): more pronounced darkening along the circumference of the tumor | time up to which tumor is visible on autoradiogram ([5]; after injection): up to 6 h
